What was measured:
[1] = biological target: T1, biotinylated AVI-tagged EED (76-441) (Homo sapiens, UniProt O75530); assay: EED binding SPR assay; settings: 1:1 binding model; read-out: KD, equilibrium dissociation constant as measured by surface plasmon resonance (SPR)
T1 construct: GST (N, cleaved yes); made in house; host or cells: E. coli BL21(DE3), co-expressed with pGro7
How it was run: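 Biotinylated AVI-EED(76-441) from E. coli was captured on Biotin CAPture chips (2200–2400 RU) in 10 mM HEPES pH 7.4, 150 mM NaCl, 0.05% Tween 20 and 2% DMSO. Compounds were run at 7 concentrations (3-fold dilutions) with 90 s association and 180 s dissociation, chip at 25 °C. Data were fitted to a 1:1 binding model.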

[2] = biological target: EZH2/PRC2 complex (Homo sapiens, UniProt O75530); assay: Histone methyltransferase assay (radioisotope-based HotSpot); format: biochemical; settings: EZH2/PRC2 complex 10 nM, core histone substrate 0.05 mg/ml, 3H-SAM 1 μM; read-out: IC50, inhibitory effects on the HMT enzyme
Procedure: Effect of compounds of the present disclosure on EZH2/PRC2 complex methyltransferase functional activity was measured using the radioisotope-based HotSpot assay described by Horiuchi, K. Y., et al. Assay Drug Dev Technol. 11(4):227-36 (2013). Briefly, compounds were prepared in a 10-point 3-fold serial dilution in DMSO from a 10 mM stock in ECHO qualified plate using Assist Plus (Integra Biosciences) liquid handler. […] Nanoliter quantities of each compound's concentration series were transferred into the enzyme/substrate mix using (Echo 550, LabCyte Inc. Sunnyvale, Calif.) acoustic dispenser and pre-incubated for 20 min at room temperature. The methylation reaction was initiated by the addition of 1 μl of 5 μM S-Adenosyl-L-[methyl-^3H]methionine (^3H-SAM) and incubated at 30° C. for 1 h. The final concentration of the EZH2/PRC2 complex, core histone substrate and ^3H-SAM were 10 nM, 0.05 mg/ml, and 1 μM respectively. The % activity of test samples were calculated with reference to positive (no compound) and negative (no EZH2/PRC2) controls on the plate using Excel (Microsoft). The resulting values were exported to Prism (GraphPad software) to generate concentration response curves and IC50 values using the four-parameter logistic equation.

T1 sequence (O75530 76-441 limits assumed): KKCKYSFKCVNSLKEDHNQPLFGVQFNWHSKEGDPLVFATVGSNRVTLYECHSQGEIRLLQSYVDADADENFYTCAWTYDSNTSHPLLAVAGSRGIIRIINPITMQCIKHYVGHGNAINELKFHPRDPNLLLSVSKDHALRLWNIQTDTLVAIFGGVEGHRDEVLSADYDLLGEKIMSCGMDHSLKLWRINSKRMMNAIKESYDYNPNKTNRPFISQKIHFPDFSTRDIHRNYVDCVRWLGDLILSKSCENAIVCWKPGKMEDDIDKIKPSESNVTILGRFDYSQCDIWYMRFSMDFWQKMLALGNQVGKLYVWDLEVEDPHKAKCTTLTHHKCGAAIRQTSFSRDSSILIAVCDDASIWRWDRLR
EZH2/PRC2 complex, sequence (O75530 whole entry): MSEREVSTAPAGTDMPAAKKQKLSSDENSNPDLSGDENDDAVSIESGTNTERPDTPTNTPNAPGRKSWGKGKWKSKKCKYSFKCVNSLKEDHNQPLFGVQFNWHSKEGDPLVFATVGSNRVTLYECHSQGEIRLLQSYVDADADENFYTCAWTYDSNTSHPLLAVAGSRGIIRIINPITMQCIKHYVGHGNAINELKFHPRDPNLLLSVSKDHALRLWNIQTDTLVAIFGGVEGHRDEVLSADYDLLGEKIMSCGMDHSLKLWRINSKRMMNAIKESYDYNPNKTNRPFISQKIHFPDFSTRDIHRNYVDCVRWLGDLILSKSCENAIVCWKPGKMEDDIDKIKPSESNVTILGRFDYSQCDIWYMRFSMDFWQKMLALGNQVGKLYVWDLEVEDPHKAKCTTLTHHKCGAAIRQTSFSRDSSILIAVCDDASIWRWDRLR
EZH2/PRC2 complex, sequence (Q15910 whole entry partner): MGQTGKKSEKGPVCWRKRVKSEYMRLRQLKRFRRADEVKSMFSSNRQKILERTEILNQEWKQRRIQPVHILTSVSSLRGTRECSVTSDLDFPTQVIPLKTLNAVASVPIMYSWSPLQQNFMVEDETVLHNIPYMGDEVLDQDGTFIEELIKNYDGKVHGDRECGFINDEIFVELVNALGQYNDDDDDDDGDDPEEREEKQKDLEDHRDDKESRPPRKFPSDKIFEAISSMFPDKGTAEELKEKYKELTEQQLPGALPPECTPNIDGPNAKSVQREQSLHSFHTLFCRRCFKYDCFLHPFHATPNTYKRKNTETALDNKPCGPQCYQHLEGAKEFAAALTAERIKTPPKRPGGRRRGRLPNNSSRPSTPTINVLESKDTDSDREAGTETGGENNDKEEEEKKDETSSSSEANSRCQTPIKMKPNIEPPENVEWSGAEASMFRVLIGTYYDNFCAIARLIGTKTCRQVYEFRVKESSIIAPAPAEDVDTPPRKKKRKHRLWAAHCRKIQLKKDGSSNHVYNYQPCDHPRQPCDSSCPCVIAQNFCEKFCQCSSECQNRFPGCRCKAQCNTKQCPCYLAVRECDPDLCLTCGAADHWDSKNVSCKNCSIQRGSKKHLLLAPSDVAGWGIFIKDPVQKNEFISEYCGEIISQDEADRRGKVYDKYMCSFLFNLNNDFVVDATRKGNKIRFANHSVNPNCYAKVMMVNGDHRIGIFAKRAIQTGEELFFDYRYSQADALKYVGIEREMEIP
EZH2/PRC2 complex, sequence (Q15022 whole entry partner): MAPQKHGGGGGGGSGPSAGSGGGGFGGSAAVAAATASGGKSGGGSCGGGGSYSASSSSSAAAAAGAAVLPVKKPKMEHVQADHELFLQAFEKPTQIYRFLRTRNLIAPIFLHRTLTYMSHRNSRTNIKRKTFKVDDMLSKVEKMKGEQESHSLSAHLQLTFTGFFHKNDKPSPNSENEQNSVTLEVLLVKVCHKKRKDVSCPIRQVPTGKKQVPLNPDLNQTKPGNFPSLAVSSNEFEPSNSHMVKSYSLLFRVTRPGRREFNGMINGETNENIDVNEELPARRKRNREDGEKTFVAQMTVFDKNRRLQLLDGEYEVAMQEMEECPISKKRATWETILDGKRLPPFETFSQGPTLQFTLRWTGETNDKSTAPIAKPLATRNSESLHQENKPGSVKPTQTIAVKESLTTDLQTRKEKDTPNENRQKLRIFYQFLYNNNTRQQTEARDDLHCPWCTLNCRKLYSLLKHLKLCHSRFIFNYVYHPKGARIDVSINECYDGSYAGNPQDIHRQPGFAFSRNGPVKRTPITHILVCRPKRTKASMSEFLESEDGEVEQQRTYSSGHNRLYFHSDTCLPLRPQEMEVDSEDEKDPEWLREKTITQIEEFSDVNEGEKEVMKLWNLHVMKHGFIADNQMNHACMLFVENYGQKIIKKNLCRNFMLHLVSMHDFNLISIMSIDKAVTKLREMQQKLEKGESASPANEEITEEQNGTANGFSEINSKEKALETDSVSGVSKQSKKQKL

Row | Kd [1] [nM] | IC50 [2] [nM] | Structure (SMILES)
1 | < 2.5 | < 25 | Cn1nc(F)cc1-c1cc2c(n3cnnc13)NCc1c(F)ccc3c1[C@@H](CO3)CO2 [Compound 168, (S)-12-fluoro-4-(3-fluoro-1-methyl-1H-pyrazol-5-yl)-7a,8,13,14-tetrahydro-7H-[1,2,4]triazolo[4′,3′:1,6]pyrido[3,2-b]benzofuro[4,3-fg][1,4]oxazonine]
2 | < 2.5 | < 25 | Cc1ncoc1-c1cc2c(n3cnnc13)NCc1c(F)ccc3c1[C@@H](CO3)CO2 [Compound 189, (S)-12-fluoro-4-(4-methyloxazol-5-yl)-7a,8,13,14-tetrahydro-7H-[1,2,4]triazolo[4′,3′:1,6]pyrido[3,2-b]benzofuro[4,3-fg][1,4]oxazonine]
3 | 10 to 50 | < 25 | Fc1ccc2c3c1CNc1c(cc(Br)c4nncn14)OC[C@@H]3CO2 [Compound 165, (S)-4-bromo-12-fluoro-7a,8,13,14-tetrahydro-7H-[1,2,4]triazolo[4′,3′:1,6]pyrido[3,2-b]benzofuro[4,3-fg][1,4]oxazonine]
4 | 2.5 to 5 | < 25 | CN(CC(F)(F)F)C(=O)c1cc2c(n3cnnc13)NCc1c(F)ccc3c1C(CO3)CO2 (centres unmarked) [Example 38]
5 | < 2.5 | < 25 | COC(=O)N1CCC(c2cc3c(n4cnnc24)NCc2c(F)ccc4c2C(CO4)CO3)CC1 [Compound 16, methyl (S)-4-(12-fluoro-7a,8,13,14-tetrahydro-7H-[1,2,4]triazolo[4′,3′:1,6]pyrido[3,2-b]benzofuro[4,3-fg][1,4]oxazonin-4-yl)piperidine-1-carboxylate]
6 | < 2.5 | < 25 | Cn1nccc1-c1cc2c(n3cnnc13)NCc1c(F)ccc3c1C(CO3)CO2 (centres unmarked) [Example 17]

The remaining lines, values behind:

Row | Structure (SMILES) | Kd [1] [nM] | IC50 [2] [nM]
7 | Cn1nccc1-c1cc2c(n3cc(C(N)=O)nc13)NCc1c(F)ccc3c1[C@@H](CO3)CO2 [Compound 175, (S)-5-fluoro-12-(1-methyl-1H-pyrazol-5-yl)-6,7,15,15a-tetrahydro-1H-benzofuro[4,3-fg]imidazo[r,2′:1,6]pyrido[3,2-b][1,4]oxazonine-10-carboxamide] | < 2.5 | < 25
8 | CC(=O)N1CCC(c2cc3c(n4cnnc24)NCc2cccc4c2[C@@H](CO4)CO3)CC1 [Compound 3, (S)-1-(4-(7a,8,13,14-tetrahydro-7H-[1,2,4]triazolo[4′,3′:1,6]pyrido[3,2-b]benzofuro[4,3-fg][1,4]oxazonin-4-yl)piperidin-1-yl)ethan-1-one] | < 2.5 | < 25
9 | Cn1nccc1-c1cc2c(n3cc(C#N)nc13)NCc1c(F)ccc3c1[C@@H](CO3)CO2 [Compound 172, (S)-5-fluoro-12-(1-methyl-1H-pyrazol-5-yl)-6,7,15,15a-tetrahydro-1H-benzofuro[4,3-fg]imidazo[r,2′:1,6]pyrido[3,2-b][1,4]oxazonine-10-carbonitrile] | < 2.5 | < 25
10 | CC(=O)N1CCC(c2cc3c(n4cnnc24)NCc2c(F)cccc2CCO3)CC1 [Compound 4, 1-(4-(12-fluoro-7,8,13,14-tetrahydro-[1,2,4]triazolo[4′,3′:1,6]pyrido[3,2-b]benzo[f][1,4]oxazonin-4-yl)piperidin-1-yl)ethan-1-one] | 10 to 50 | < 25
11 | Cc1ncccc1-c1cc2c(n3cnnc13)NCc1cccc3c1[C@H](CO3)CO2 [Compound 1, (15R)-10-(2-methyl-3-pyridyl)-13,17-dioxa-3,5,7,8-tetrazapentacyclo[13.6.1.04,12.05,9.018,22] docosa-1(22),4(12),6,8,10,18,20-heptaene] | < 2.5 | < 25
12 | Cc1ncc(-c2cc3c(n4cnnc24)NCc2c(F)cccc2CCO3)c(C)n1 [Compound 14, 4-(2,4-dimethylpyrimidin-5-yl)-12-fluoro-7,8,13,14-tetrahydro-[1,2,4]triazolo[4′,3′:1,6]pyrido[3,2-b]benzo[f][1,4]oxazonine] | 10 to 50 | 50 to 100
13 | COc1ncc(-c2cc3c(n4cnnc24)NCc2c(F)ccc4c2[C@H](CO4)CO3)cn1 [Example 30] | < 2.5 | < 25
